The nature of data set [1]: Crystallinity of CoQ10 by modulated differential scanning calorimetry (MDSC). It is filed as physicochemical. The conditions noted are these: Example 6, 20% total solids; MDSC heat-only, aluminum hermetic pans. The text has this:
Four spray dried powders were made containing CoQ10 and two solubility-enhancing polymers at two CoQ10:polymer ratios for each polymer.

Data set [2] in a line: Dissolution, USP apparatus II (paddles), media containing Cremophor EL and 4% Acconon MC8. The class given is physicochemical. The settings on record: Example 6. The procedure: Dissolution properties were measured on the four spray dried powders of Example 1, crystalline CoQ10 and two commercial CoQ10 products (one soft gel and one dry powder capsule). All non-commercial samples were hand-filled into size 1 gelatin capsules (Shinogi Qualicaps). USP apparatus II (paddles) (VK 70100®, Varian Inc.) was used, with a bath temperature of 37° C. at 50 rpm for the first 60 minutes and then 200 rpm for an additional 15 minutes. The media contained Cremophoro EL (BASF Corp.), and 4% Acconono® MC8 (Abitec Corp.). Analysis was performed using high pressure liquid chromatography (HPLC) with UV detection (SCL-10 controller with SPD-10A detector module, Shimadzu Scientific Instruments)

[3] abbreviates: dissolution method of Example 2.

On to `COC1=C(OC)C(=O)C(C/C=C(\C)CC/C=C(\C)CC/C=C(\C)CC/C=C(\C)CC/C=C(\C)CC/C=C(\C)CC/C=C(\C)CC/C=C(\C)CC/C=C(\C)CCC=C(C)C)=C(C)C1=O` [CoQ10 (as received), Coenzyme Q10], for which, in data set [1], the crystallinity is recorded as 100%. In data set [2] (setting [3]), the “t50% (time for 50% CoQ10 dissolution)” value is “not attained” and the “t80% (time for 80% CoQ10 dissolution)” value is listed as “not attained”. In addition, the “max. CoQ10 release” value in data set [2] (dissolution method of Example 2, 75 minutes) came to 4.3%.

The values above are taken from patent publication US20070026072A1, “Benzoquinones of enhanced bioavailability” (priority 2005, published 2007).
